{
  "source": "paper PMC6320288",
  "about": "(Neuroscience letters, 2018)",
  "key": {"rat P2X3R": {"molecular_target": "T1, rat P2X3R (Rattus norvegicus, UniProt P49654)", "T1 sequence (P49654 1-397)": "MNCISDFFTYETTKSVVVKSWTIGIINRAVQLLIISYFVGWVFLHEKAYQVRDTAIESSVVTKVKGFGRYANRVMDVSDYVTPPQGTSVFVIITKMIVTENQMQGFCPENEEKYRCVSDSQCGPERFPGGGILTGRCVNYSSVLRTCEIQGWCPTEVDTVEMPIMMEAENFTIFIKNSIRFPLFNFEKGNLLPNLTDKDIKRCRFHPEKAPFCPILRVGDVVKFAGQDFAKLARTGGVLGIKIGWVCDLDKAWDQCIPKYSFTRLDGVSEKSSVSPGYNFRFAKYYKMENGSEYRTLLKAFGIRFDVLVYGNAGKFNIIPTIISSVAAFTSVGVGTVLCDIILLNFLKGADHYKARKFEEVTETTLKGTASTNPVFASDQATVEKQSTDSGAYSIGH", "assay": "whole-cell patch clamp in transfected HEK293 cells", "assay_type": "cell-based", "settings": "HEK293, read-out: % inhibition at 10 μM"}, "rat P2X4R (rP2X4R)": {"molecular_target": "T2, rat P2X4R (rP2X4R) (Rattus norvegicus, UniProt P51577)", "T2 sequence (P51577 1-388)": "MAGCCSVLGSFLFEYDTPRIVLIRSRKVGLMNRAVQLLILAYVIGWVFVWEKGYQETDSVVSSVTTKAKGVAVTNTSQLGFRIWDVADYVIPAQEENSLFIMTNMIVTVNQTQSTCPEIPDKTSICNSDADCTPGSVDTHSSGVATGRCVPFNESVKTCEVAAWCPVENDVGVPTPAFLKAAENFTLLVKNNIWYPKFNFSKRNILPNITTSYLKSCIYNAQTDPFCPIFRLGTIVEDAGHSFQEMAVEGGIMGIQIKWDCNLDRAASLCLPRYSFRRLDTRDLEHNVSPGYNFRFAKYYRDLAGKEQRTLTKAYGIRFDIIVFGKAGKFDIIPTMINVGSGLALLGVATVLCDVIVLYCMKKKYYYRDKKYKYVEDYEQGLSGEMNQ", "assay": "cell-based"}},
  "data": [
    {"smiles": "O=C1CN=C(c2cccc(Br)c2)c2oc3ccccc3c2N1", "note": "[5-BDBD, 5-(3-bromophenyl)-1,3-dihydro-2H-benzofuro[3,2-e]-1,4-diazepin-2-one]", "values": [
      {"measurement": "inhibition at 10 µM", "setting": "rat P2X3R", "result": "35.9 ± 10.1", "unit": "%"}
    ]},
    {"smiles": "Nc1ncnc2c1ncn2[C@@H]1O[C@H](COP(=O)(O)OP(=O)(O)OP(=O)(O)O)[C@@H](O)[C@H]1O", "note": "[ATP]", "values": [
      {"measurement": "EC50", "setting": "rat P2X4R (rP2X4R)", "result": "4.7 ± 1.8", "unit": "µM"}
    ]}
  ]
}
